Measured values: ChEMBL document CHEMBL4038270, “Synthesis of heterocyclic ring-fused tricyclic diterpene analogs as novel inhibitors of RANKL-induced osteoclastogenesis and bone resorption” (Eur J Med Chem, 2017)
pIC50: −log10 of the molar value.

Key:
[1] = Inhibition of RANKL-induced C57BL/6 mouse bone marrow monocytes differentiation into osteoclasts at 0.1 uM after 6 days in presence of M-CSF by tartrate-resistant acid phosphatase staining based assay relative to control; format: functional; settings: C57BL/6, Bone marrow monocyte, 144 h
[2] = Inhibition of RANKL-induced C57BL/6 mouse bone marrow monocytes differentiation into osteoclasts at 0.5 uM after 6 days in presence of M-CSF by tartrate-resistant acid phosphatase staining based assay relative to control; format: functional; settings: C57BL/6, Bone marrow monocyte, 144 h
[3] = Inhibition of RANKL-induced C57BL/6 mouse bone marrow monocytes differentiation into osteoclasts at 2 uM after 6 days in presence of M-CSF by tartrate-resistant acid phosphatase staining based assay relative to control; format: functional; settings: C57BL/6, Bone marrow monocyte, 144 h
[4] = Inhibition of RANKL-induced C57BL/6 mouse bone marrow macrophage differentiation into osteoclasts in presence of M-CSF by tartrate-resistant acid phosphatase staining based assay; format: functional, cell-based; settings: C57BL/6, BMDM
[5] = Inhibition of RANKL-induced C57BL/6 mouse bone marrow monocytes differentiation into osteoclasts at 10 uM after 6 days in presence of M-CSF by tartrate-resistant acid phosphatase staining based assay relative to control; format: functional; settings: C57BL/6, Bone marrow monocyte, 144 h
[6] = Inhibition of RANKL-induced C57BL/6 mouse bone marrow monocytes differentiation into osteoclasts after 6 days in presence of M-CSF by tartrate-resistant acid phosphatase staining based assay; format: functional, cell-based; settings: C57BL/6, Bone marrow monocyte, 144 h
[7] = Potency index, ratio of maslinic acid IC50 to compound IC50 for RANKL-induced C57BL/6 mouse bone marrow monocytes differentiation into osteoclasts; format: functional, Bone marrow monocyte

Row | Structure (SMILES) | inhibition at 0.1 µM [1] [%] | inhibition at 0.5 µM [2] [%] | inhibition at 2 µM [3] [%] | pIC50 [4] | inhibition at 10 µM [5] [%] | pIC50 [6] | Ratio IC50 [7]
1 | CCC(=O)c1cc2c(cc1OC)[C@@]1(C)Cc3nc(C)oc3C(C)(C)[C@@H]1CC2 | 32.5 | 64.1 | 91.3 |  |  |  | 
2 | CC1(C)[C@H](O)C(=O)C[C@]2(C)[C@@H]1CC[C@]13CC4C[C@](O)(C1)[C@@H]4C[C@H]32 |  |  |  | 4.82 |  |  | 
3 | COc1ccc2c(c1)[C@@]1(C)Cc3nc(N)sc3C(C)(C)[C@@H]1CC2 |  | 29.8 | 35.8 |  | 98.2 |  | 
4 | CCNC(=O)c1noc2c1C[C@]1(C)c3cc(OC)ccc3CC[C@H]1C2(C)C |  | 33.6 | 42.4 |  | 84.3 |  | 
5 | COc1ccc2c(c1)[C@@]1(C)Cc3c(C(=O)O)noc3C(C)(C)[C@@H]1CC2 |  | 55.1 | 66.8 |  | 77.9 |  | 
6 | COc1cc2c(cc1N)CC[C@H]1C(C)(C)c3oc(C)nc3C[C@]21C | 27.1 | 54.8 | 77.7 |  |  |  | 
7 | CCCNC(=O)c1cc2c(cc1OC)[C@@]1(C)Cc3nc(C)oc3C(C)(C)[C@@H]1CC2 | 38.1 | 62.8 | 100 |  |  |  | 
8 | CCCC(=O)c1cc2c(cc1OC)[C@@]1(C)Cc3nc(C)oc3C(C)(C)[C@@H]1CC2 | 30 | 55.6 | 83.6 |  |  |  | 
9 | COC(=O)c1noc2c1C[C@]1(C)c3cc(OC)ccc3CC[C@H]1C2(C)C |  | 34.8 | 43.7 |  | 100 |  | 
10 | CCNC(=O)c1cc2c(cc1OC)[C@@]1(C)Cc3nc(C)oc3C(C)(C)[C@@H]1CC2 | 56.1 | 70 | 98.2 |  |  |  | 
11 | CC1(C)CC[C@]2(C(=O)O)CC[C@]3(C)C(=CC[C@@H]4[C@@]5(C)C[C@@H](O)[C@H](O)C(C)(C)[C@@H]5CC[C@]43C)[C@@H]2C1 [MASLINIC ACID] |  | 48.6 | 59.7 |  | 76.3 | 6.20 | 
12 | CCCOC(=O)c1noc2c1C[C@]1(C)c3cc(OC)ccc3CC[C@H]1C2(C)C |  | 34.8 | 41.4 |  | 100 |  | 
13 | COc1cc2c(cc1C(C)=O)CC[C@H]1C(C)(C)c3oc(C)nc3C[C@]21C | 30.6 | 64.5 | 100 |  |  |  | 
14 | COc1ccc2c(c1)[C@@]1(C)Cc3c([nH]c4ccccc34)C(C)(C)[C@@H]1CC2 |  | 57.6 | 74.3 |  | 88.9 |  | 
15 | CCCCNC(=O)c1cc2c(cc1OC)[C@@]1(C)Cc3nc(C)oc3C(C)(C)[C@@H]1CC2 | 34.5 | 37.8 | 88.6 |  |  |  | 
16 | COc1cc2c(cc1C(=O)O)CC[C@H]1C(C)(C)c3oc(C)nc3C[C@]21C | 22.6 | 45.2 | 67.8 |  |  |  | 
17 | COc1ccc2c(c1)[C@@]1(C)Cc3c(n[nH]c3C(=O)O)C(C)(C)[C@@H]1CC2 |  | 43.9 | 57.2 |  | 56.1 |  | 
18 | COc1ccc2c(c1)[C@@]1(C)Cc3c(CO)noc3C(C)(C)[C@@H]1CC2 |  | 43.4 | 51.7 |  | 91.4 |  | 

Row | Structure (SMILES) | inhibition at 0.1 µM [1] [%] | inhibition at 0.5 µM [2] [%] | inhibition at 2 µM [3] [%] | pIC50 [4] | inhibition at 10 µM [5] [%] | pIC50 [6] | Ratio IC50 [7]
19 | COc1ccc2c(c1)[C@@]1(C)Cc3cncnc3C(C)(C)[C@@H]1CC2 |  | 51.1 | 83 |  | 99.5 |  | 
20 | COc1ccc2c(c1)[C@@]1(C)Cc3nc(C)oc3C(C)(C)[C@@H]1CC2 | 42.9 | 75 | 99.2 |  | 100 | 6.48 | 2
21 | COc1ccc2c(c1)[C@@]1(C)Cc3c[nH]nc3C(C)(C)[C@@H]1CC2 |  | 4.3 | 8.1 |  | 10.1 |  | 
22 | CC1(C)C(=O)CC[C@]2(C)[C@@H]1CC[C@@]13C[C@@H]4[C@@H](C[C@H]12)[C@]4(C(=O)O)C3 |  |  |  | 5.40 |  |  | 
23 | CCOC(=O)c1noc2c1C[C@]1(C)c3cc(OC)ccc3CC[C@H]1C2(C)C |  | 49.5 | 88.6 |  | 100 |  | 
24 | COc1ccc2c(c1)[C@@]1(C)Cc3snnc3C(C)(C)[C@@H]1CC2 |  | 66.7 | 76.8 |  | 97.2 |  | 
25 | COc1cc2c(cc1/C(C)=N/O)CC[C@H]1C(C)(C)c3oc(C)nc3C[C@]21C | 26.9 | 42.7 | 70 |  |  |  | 
26 | CNC(=O)c1noc2c1C[C@]1(C)c3cc(OC)ccc3CC[C@H]1C2(C)C |  | 28.6 | 52.8 |  | 100 |  | 
27 | COc1cc2c(cc1NC(C)=O)CC[C@H]1C(C)(C)c3oc(C)nc3C[C@]21C | 26.9 | 44.1 | 66.1 |  |  |  | 
28 | COc1cc2c(cc1C(=O)N(C)C)CC[C@H]1C(C)(C)c3oc(C)nc3C[C@]21C | 53.1 | 70.1 | 89.2 |  |  |  | 
29 | COc1cc2c(cc1C(N)=O)CC[C@H]1C(C)(C)c3oc(C)nc3C[C@]21C | 10.2 | 30.9 | 57 |  |  |  | 
30 | CNC(=O)c1cc2c(cc1O)[C@@]1(C)Cc3nc(C)oc3C(C)(C)[C@@H]1CC2 | 64.1 | 87.6 | 96.6 |  |  |  | 
31 | CCOC(=O)c1[nH]nc2c1C[C@]1(C)c3cc(OC)ccc3CC[C@H]1C2(C)C |  | 61.6 | 71.7 |  | 93.7 |  | 
32 | COc1ccc2c(c1)[C@@]1(C)Cc3nccnc3C(C)(C)[C@@H]1CC2 |  | 34.3 | 66.9 |  | 98.2 |  | 
33 | COc1ccc2c(c1)[C@@]1(C)Cc3cnoc3C(C)(C)[C@@H]1CC2 |  | 1.5 | 15.9 |  | 59.1 | 5.12 | 
34 | COc1ccc2c(c1)[C@@]1(C)Cc3cnc(C)nc3C(C)(C)[C@@H]1CC2 |  | 45.2 | 76 |  | 98.5 |  | 
35 | COc1ccc2c(c1)[C@@]1(C)Cc3cnc(N)nc3C(C)(C)[C@@H]1CC2 |  | 38.6 | 64.6 |  | 96.2 |  | 
36 | CC1(C)[C@H](O)CC[C@]2(C)[C@@H]1CC[C@]13CC4C[C@](O)(C1)[C@@H]4C[C@H]32 |  |  |  | 4.70 |  |  | 
